Where two headings read alike, the source gives them in different places.

The term inhibition denotes the share of the control response that was lost under treatment. Higher therefore signals strong suppression.

Assay [1] deals with T1, recombinant human Caspase-1 (Homo sapiens, UniProt P29466).
T1 construct: purchased Enzo life science
T1 sequence (P29466 120-297 limits assumed): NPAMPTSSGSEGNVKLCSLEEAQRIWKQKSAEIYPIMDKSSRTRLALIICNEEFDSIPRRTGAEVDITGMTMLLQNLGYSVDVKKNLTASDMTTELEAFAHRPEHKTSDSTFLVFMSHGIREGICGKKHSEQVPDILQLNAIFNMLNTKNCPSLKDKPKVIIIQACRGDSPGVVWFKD
T1 sequence (P29466 317-404 limits assumed): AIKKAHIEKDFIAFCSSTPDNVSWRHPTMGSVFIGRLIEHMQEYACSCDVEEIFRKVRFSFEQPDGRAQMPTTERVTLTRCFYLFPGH
Kind of assay: Caspase-1 inhibitory activity, fluorescent substrate Ac-YVAD-AFC. Type of assay: biochemical. As for the experimental part:
To determine the Caspase-1 inhibitory activity of the compounds of the present invention prepared in Example, Caspase-1 activity was measured using a substrate with a fluorescent dye attached to it. […] The compound was dissolved in DMSO and stored at −20° C. Enzymatic reactions were carried out in a buffer comprising 50 mM HEPES (pH 8.0), 50 mM KCl, 200 mM NaCl, 10 mM DTT, 0.1% CHAPS (w/v). Enzyme inactivation was measured in the presence of different concentrations of the compound using the fluorescent substrate N-Acetyl-Tyr-Val-Ala-Asp-7-amido-4-trifluoromethylcoumarin (Ac-YVAD-AFC) (Sigma) at a concentration of 50 μM and 1 unit of recombinant human Caspase-1 (Enzo life science). A CLARIOstar Plus spectrometer (BMG Labtech) was used to measure the reaction rate as a function of time in the 400/505 nm (Ex/Em) wavelength band. […] If kobs/[I] is 20 or more, it is denoted as A, if it is 10 or more but less than 20, it is denoted as B, if it is 1 or more but less than 10, it is denoted as C, and if it is less than 1, it is denoted as D.
In the above equation, At means the enzyme reaction rate at time t (min), and Amax means the maximum reaction rate.

Assay [2] relates to Secreted IL-1β in THP-1 cells. The assay can be described thus: Interleukin-1β inhibitory activity in human monocytic cells THP-1 (ELISA). Type of assay: cell-based. The conditions noted are these: compound 100 nM, PMA-differentiated THP-1, LPS 10 μg/ml then 5 mM ATP, 24 h. As to the method:
Caspase-1 is known as […] (ICE). Activated Caspase-1 is involved in the cleavage of pro-form IL-1β to produce the mature form, which is then secreted to induce inflammation. Therefore, the compounds identified in Experimental example 1 were tested to determine if their Caspase-1 inhibitory activity affected the production of […].
THP-1 (ATCC) cells were cultured in RPMI 1640 (Hyclone) growth medium comprising 10% Fetal bovine serum (FBS, Gibco) and antibiotics (100 U/ml Penicillin, 0.1 mg/ml Streptomycin, Cytiva) under 37° C., 5% CO2 conditions. Cultured THP-1 cells were seeded in growth medium to a concentration of 3×10^5 cells/well in 24-well plates (Celvest) and then treated with 1 μM Phorbol 12-myristate 13-acetate (PMA) (Sigma) for 24 hours to induce differentiation. Differentiated THP-1 were pre treated with 10 μg/ml Lipopolysaccharide (LPS, from E. coli 0111:B4 (InvivoGen)) in serum free RPMI 1640 medium for 24 hours to induce an inflammatory response. After removal of LPS, the compounds were pretreated for 1 h at a concentration of 100 nM using the same medium, followed by the addition of 5 mM ATP (InvivoGen) and incubation for 24 h in an incubator. The treated medium was collected and centrifuged, and IL-1β was quantified using an Enzyme linked immunoassay kit (ELISA kit, R&D system), and absorbance was measured at 450 nm using a CLARIOstar Plus spectrometer. Inhibitory activity was denoted as a if it was 50% or more, b if it was 30% or more but less than 50%, c if it was 10% or more but less than 30%, and d if it was less than 10%.

A further assay deals with Jurkat cells. The assay can be described thus: Apoptosis inhibition activity in human T-lymphocyte cells Jurkat (anti-FAS antibody, intracellular ATP). The conditions noted are these: compound 50 nM, 1 μg/ml anti-FAS antibody 24 h, ATP luminescence. Type of assay: cell-based. As to the method:
To evaluate the effect of the compound of the present invention on apoptosis, Jurkat (ATCC) cells were treated with anti-FAS antibody CH-11 (Merck) to induce apoptosis via the Fas (CD95) receptor, which was assessed by the amount of intracellular ATP.
Jurkat cells were cultured in RPMI 1640 growth medium comprising 10% FBS and antibiotics (100 U/ml Penicillin, 0.1 mg/ml Streptomycin) under 37° C., 5% CO2 conditions. Cultured cells were seeded in growth medium to a concentration of 8×10^4 cells/well in 96-well plates (SPL), pretreated with compound at a concentration of 50 nM for 1 hour, and then treated with 1 μg/ml anti-FAS antibody for 24 hours in an incubator. After 24 h, an ATP lite Luminescence assay kit (PerkinElmer) was used to measure ATP and luminescence was measured at 580 nm using a CLARIOstar Plus spectrometer. If the inhibitory activity is 30% or more, it is denoted as a′, if it is 20% or more but less than 30%, it is denoted as b′, if it is 10% or more but less than 20%, it is denoted as c′, and if it is less than 10%, it is denoted as d′.

Where [3] appears, read: pH 8, 1 unit recombinant human Caspase-1, 50 μM Ac-YVAD-AFC, read-out: kobs/[I] Caspase-1.
Where [4] appears, read: pH 8, read-out: kobs/[I] Caspase-1.

For the molecule `CCC(C(=O)NC(CC(=O)O)C(=O)CF)N1Cc2ccc(-c3ccccc3)cc2C1=O` (stereo not drawn) [Compound 1, 5-fluoro-4-oxo-3-(2-(1-oxo-6-phenylisoindolin-2-yl)butanamido)pentanoic acid], in assay [1] (setting [3]), the kinact/KI was in the range of 0.0167 to 0.167 M⁻¹ s⁻¹. Moreover, the inhibition at 0.1 µM in assay [2] fell in the range of 10 to 30%. Further, the inhibition at 0.05 µM in the assay with Jurkat cells is 20 to 30%.
With `CCC(C(=O)NC(CC(=O)O)C(=O)CF)N1Cc2ccc(-c3cccc4ccccc34)cc2C1=O` (stereo not drawn) [Compound 2, 5-fluoro-3-(2-(6-(naphthalen-1-yl)-1-oxoisoindolin-2-yl)butanamido)-4-oxopentanoic acid], the kinact/KI in assay [1] (setting [3]) was 0.0167 to 0.167 M⁻¹ s⁻¹. This molecule also came in with an inhibition at 0.1 µM in assay [2] of 30 to 50%. Further, in the assay with Jurkat cells, the inhibition at 0.05 µM lay within 10 to 20%.
Consider `CCC(C(=O)NC(CC(=O)O)C(=O)CF)N1Cc2ccc(N3CCCC3)cc2C1=O` (stereo not drawn) [Compound 3, 5-fluoro-4-oxo-3-(2-(1-oxo-6-(pyrrolidin-1-yl)isoindolin-2-yl)butanamido)pentanoic acid], for which the kinact/KI in assay [1] (setting [3]) lay in the range of 0.0167 to 0.167 M⁻¹ s⁻¹. Also, the inhibition at 0.1 µM in assay [2] is 30 to 50%. In the assay with Jurkat cells, this molecule had an inhibition at 0.05 µM of 20 to 30%.
The like results for `CCC(C(=O)NC(CC(=O)O)C(=O)CF)N1Cc2ccc(-c3cccnc3)cc2C1=O` (stereo not drawn) [Compound 4, 5-fluoro-4-oxo-3-(2-(1-oxo-6-(pyridin-3-yl)isoindolin-2-yl)butanamido)pentanoic acid] were, in that order, 0.0167 to 0.167 M⁻¹ s⁻¹, 30 to 50% and 10 to 20%.
The like results for `CCC(C(=O)NC(CC(=O)O)C(=O)CF)N1Cc2ccc(-c3cn[nH]c3)cc2C1=O` (stereo not drawn) [Compound 5, 5-fluoro-4-oxo-3-(2-(1-oxo-6-(1H-pyrazol-4-yl)isoindolin-2-yl)butanamido)pentanoic acid] were, in that order, 0.0167 to 0.167 M⁻¹ s⁻¹, 30 to 50% and 10 to 20%.
The like results for `CCC(C(=O)NC(CC(=O)O)C(=O)CF)N1Cc2ccc(N3CCN(S(C)(=O)=O)CC3)cc2C1=O` (stereo not drawn) [Compound 6, 5-fluoro-3-(2-(6-(4-(methylsulfonyl)piperazin-1-yl)-1-oxoisoindolin-2-yl)butanamido)-4-oxopentanoic acid] were, in that order, less than 0.0167 M⁻¹ s⁻¹, 10 to 30% and 10 to 20%.
Regarding `CCC(C(=O)NC(CC(=O)O)C(=O)CF)N1Cc2ccc(-c3ccc4[nH]c(=O)[nH]c4c3)cc2C1=O` (stereo not drawn) [Compound 8, 5-fluoro-4-oxo-3-(2-(1-oxo-6-(2-oxo-2,3-dihydro-1H-benzo[d]imidazol-5-yl)isoindolin-2-yl)butanamido)pentanoic acid], in assay [1] (setting [3]), the kinact/KI lay within 0.0167 to 0.167 M⁻¹ s⁻¹. Also, the inhibition at 0.1 µM in assay [2] is no less than 50%. Also, the inhibition at 0.05 µM in the assay with Jurkat cells fell in the range of 10 to 20%.
The like results for `CCC(C(=O)NC(CC(=O)O)C(=O)CF)N1Cc2ccc(Br)cc2C1=O` (stereo not drawn) [Compound 9, 3-(2-(6-bromo-1-oxoisoindolin-2-yl)butanamido)-5-fluoro-4-oxopentanoic acid] were, in that order, 0.0167 to 0.167 M⁻¹ s⁻¹, 30 to 50% and no less than 30%.
The like results for `CCC(C(=O)NC(CC(=O)O)C(=O)CF)N1Cc2ccc(N3CCn4cc(C(F)(F)F)nc4C3)cc2C1=O` (stereo not drawn) [Compound 10, 5-fluoro-4-oxo-3-(2-(1-oxo-6-(2-(trifluoromethyl)-5,6-dihydroimidazo[1,2-a]pyrazin-7(8H)-yl)isoindolin-2-yl)butanamido)pentanoic acid] were, in that order, 0.0167 to 0.167 M⁻¹ s⁻¹, 30 to 50% and 10 to 20%.
With `CCC(C(=O)NC(CC(=O)O)C(=O)CF)N1Cc2ccc(-c3cnn4ccccc34)cc2C1=O` (stereo not drawn) [Compound 33, 5-fluoro-4-oxo-3-(2-(1-oxo-6-(pyrazolo[1,5-a]pyridin-3-yl)isoindolin-2-yl)butanamido)pentanoic acid], the kinact/KI in assay [1] (setting [3]) was in the range of 0.0167 to 0.167 M⁻¹ s⁻¹. For the same molecule, in assay [2], the inhibition at 0.1 µM is less than 10%.
Taken in the same sequence, the figures for `CCC(C(=O)NC(CC(=O)O)C(=O)CF)N1Cc2ccc(-c3cccc4ncccc34)cc2C1=O` (stereo not drawn) [Compound 34, 5-fluoro-4-oxo-3-(2-(1-oxo-6-(quinolin-5-yl)isoindolin-2-yl)butanamido)pentanoic acid] were 0.0167 to 0.167 M⁻¹ s⁻¹ and less than 10%.
With `CCC(C(=O)NC(CC(=O)O)C(=O)CF)N1Cc2ccc(-c3cccc4ccncc34)cc2C1=O` (stereo not drawn) [Compound 35, 5-fluoro-3-(2-(6-(isoquinolin-8-yl)-1-oxoisoindolin-2-yl)butanamido)-4-oxopentanoic acid], the kinact/KI in assay [1] (setting [4]) fell in the range of 0.0167 to 0.167 M⁻¹ s⁻¹. In assay [2], the inhibition at 0.1 µM is less than 10%.
The like results for `CCC(C(=O)NC(CC(=O)O)C(=O)CF)N1Cc2ccc(-c3cccc4cnccc34)cc2C1=O` (stereo not drawn) [Compound 36, 5-fluoro-3-(2-(6-(isoquinolin-5-yl)-1-oxoisoindolin-2-yl)butanamido)-4-oxopentanoic acid] were, in that order, 0.0167 to 0.167 M⁻¹ s⁻¹ and less than 10%.
Taken in the same sequence, the figures for `CC(C)[C@@H](C(=O)NC(CC(=O)O)C(=O)CF)N1Cc2ccc(N3CCCC3)cc2C1=O` (stereo partly drawn) [Compound 43, 5-fluoro-3-((S)-3-methyl-2-(1-oxo-6-(pyrrolidin-1-yl)isoindolin-2-yl)butanamido)-4-oxopentanoic acid] were less than 0.0167 M⁻¹ s⁻¹ and 10 to 30%.
Taken in the same sequence, the figures for `CC[C@@H](C(=O)N[C@@H](CC(=O)O)C(=O)COc1c(F)c(F)cc(F)c1F)N1Cc2ccc(N3CCCC3)cc2C1=O` [Compound 53, (S)-4-oxo-3-((S)-2-(1-oxo-6-(pyrrolidin-1-yl)isoindolin-2-yl)butanamido)-5-(2,3,5,6-tetrafluorophenoxy)pentanoic acid] were 0.0167 to 0.167 M⁻¹ s⁻¹ and less than 10%.
Take `CC[C@@H](C(=O)NC(CC(=O)O)C(=O)CF)N1Cc2cc(-c3csc4ccccc34)ccc2C1=O` (stereo partly drawn) [Compound 59, 3-((S)-2-(5-(benzo[b]thiophen-3-yl)-1-oxoisoindolin-2-yl)butanamido)-5-fluoro-4-oxopentanoic acid]: the kinact/KI in assay [1] (setting [4]) was less than 0.0167 M⁻¹ s⁻¹. The inhibition at 0.1 µM in assay [2] was less than 10%.
As to `CC[C@@H](C(=O)NC(CC(=O)O)C(=O)CF)N1Cc2cc(-c3ccc4occc4c3)ccc2C1=O` (stereo partly drawn) [Compound 60, 3-((S)-2-(5-(benzofuran-5-yl)-1-oxoisoindolin-2-yl)butanamido)-5-fluoro-4-oxopentanoic acid], in assay [1] (setting [4]), the kinact/KI was less than 0.0167 M⁻¹ s⁻¹. Further, the inhibition at 0.1 µM in assay [2] was less than 10%.
Taken in the same sequence, the figures for `CC[C@@H](C(=O)NC(CC(=O)O)C(=O)CF)N1Cc2cc(-c3cccc4ccccc34)ccc2C1=O` (stereo partly drawn) [Compound 61, 5-fluoro-3-((S)-2-(5-(naphthalen-1-yl)-1-oxoisoindolin-2-yl)butanamido)-4-oxopentanoic acid] were less than 0.0167 M⁻¹ s⁻¹ and less than 10%.

Source of the values: patent US20250109135A1, “NOVEL ISOINDOLINONE DERIVATIVE COMPOUNDS AS CASPASE INHIBITORS” (INNOVO THERAPEUTICS INC., priority 2022, published 2025).
